Data: the supplement of paper PMC5908809

What was measured:
[1] = system: normal NK cells expanded with K562-aAPC; assay: percent inhibition of viability; higher = more inhibition; conditions: 72 h, IL-2 2.5 ng/mL
Experimental: (§1)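 Drug sensitivity and resistance testing on K562-aAPC-expanded normal NK cells: 5 concentrations (10-fold steps over a 10,000-fold range), 72 h at 37 °C, viability by CellTiter-Glo normalised to DMSO and benzethonium chloride controls; DSS from the fitted curve.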

DERL-7 (IL-2 2.5 ng/mL) [2] = assay: as above; conditions: 72 h
IMC-1 (IL-2 20 ng/mL) [3] = assay: as above; conditions: 72 h
KAI3 (IL-2 2.5 ng/mL) [4] = assay: as above; conditions: 72 h
KHYG-1 (IL-2 2.5 ng/mL) [5] = assay: as above; conditions: 72 h
NK-92 (IL-2 2.5 ng/mL) [6] = assay: as above; conditions: 72 h
NK-YS (IL-2 2.5 ng/mL) [7] = assay: as above; conditions: 72 h
NKL (IL-2 2.5 ng/mL) [8] = assay: as above; conditions: 72 h
SNK-6 (IL-2 2.5 ng/mL) [9] = assay: as above; conditions: 72 h
YT (IL-2 2.5 ng/mL) [10] = assay: as above; conditions: 72 h
[11] = system: normal primary NK cells, pool 1 (3 donors) (IL-2 2.5 ng/mL); assay: as above; conditions: 72 h
[12] = system: normal primary NK cells, pool 1 (3 donors), resting (IL-2 0 ng/mL); assay: as above; conditions: 72 h
[13] = system: normal primary NK cells, pool 2 (3 donors) (IL-2 2.5 ng/mL); assay: as above; conditions: 72 h
[14] = system: normal primary NK cells, pool 3 (3 donors) (IL-2 2.5 ng/mL); assay: as above; conditions: 72 h
[15] = system: normal NK cells expanded with K562-aAPC; assay: drug sensitivity score (DSS) (DSS units); higher = more sensitive; extreme values may be limits of the assay; conditions: 72 h; IL-2 2.5 ng/mL
Experimental: as §1

DERL-7 (IL-2 2.5 ng/mL) [16] = assay: as above; conditions: 72 h
IMC-1 (IL-2 20 ng/mL) [17] = assay: as above; conditions: 72 h
KAI3 (IL-2 2.5 ng/mL) [18] = assay: as above; conditions: 72 h
KHYG-1 (IL-2 2.5 ng/mL) [19] = assay: as above; conditions: 72 h
NK-92 (IL-2 2.5 ng/mL) [20] = assay: as above; conditions: 72 h
NK-YS (IL-2 2.5 ng/mL) [21] = assay: as above; conditions: 72 h
NKL (IL-2 2.5 ng/mL) [22] = assay: as above; conditions: 72 h
SNK-6 (IL-2 2.5 ng/mL) [23] = assay: as above; conditions: 72 h
YT (IL-2 2.5 ng/mL) [24] = assay: as above; conditions: 72 h
[25] = system: normal primary NK cells, pool 1 (3 donors) (IL-2 2.5 ng/mL); assay: as above; conditions: 72 h
[26] = system: normal primary NK cells, pool 1 (3 donors), resting (IL-2 0 ng/mL); assay: as above; conditions: 72 h
[27] = system: normal primary NK cells, pool 2 (3 donors) (IL-2 2.5 ng/mL); assay: as above; conditions: 72 h
[28] = system: normal primary NK cells, pool 3 (3 donors) (IL-2 2.5 ng/mL); assay: as above; conditions: 72 h

Nc1ncnc2c1nc(Cl)n2[C@@H]1O[C@H](CO)[C@@H](O)[C@H]1O [8-chloro-adenosine] (max concentration tested 50000 nM)
percent inhibition of viability [%]
Conditions | 5 nM | 50 nM | 500 nM | 5000 nM | 50000 nM
DERL-7 (IL-2 2.5 ng/mL) [2] | -0.76 | -2.87 | 38.2 | 96.9 | 101
IMC-1 (IL-2 20 ng/mL) [3] | -4.61 | -4.66 | -2.73 | -11.7 | 66.7
KAI3 (IL-2 2.5 ng/mL) [4] | -13.1 | -12.4 | 38.3 | 86.7 | 92.9
KHYG-1 (IL-2 2.5 ng/mL) [5] | -6.84 | -4.5 | 1.43 | 75.4 | 94
NK-92 (IL-2 2.5 ng/mL) [6] | -20.2 | -17.7 | 8.7 | 44.5 | 64
NK-YS (IL-2 2.5 ng/mL) [7] | -8.76 | -5.07 | 22.4 | 73.6 | 92.2
NKL (IL-2 2.5 ng/mL) [8] | -21.8 | -24.6 | -10.7 | 40.7 | 75.6
SNK-6 (IL-2 2.5 ng/mL) [9] | 21.5 | 20.6 | 46.5 | 92.8 | 96.9
YT (IL-2 2.5 ng/mL) [10] | -2.82 | -1.05 | 1.56 | 66.9 | 72.2
[1] | -0.51 | -6.13 | 2.57 | 35.4 | 73
[11] | -2.27 | -6.47 | -3.95 | 30.1 | 77.2
[12] | -17.2 | -29.2 | -19.8 | 36.1 | 78.2
[13] | -8.69 | 0.94 | 1.41 | 28 | 71.1
[14] | -18.1 | -3.17 | -4.4 | 17.3 | 57.7

Conditions | drug sensitivity score
DERL-7 (IL-2 2.5 ng/mL) [16] | 22.6
IMC-1 (IL-2 20 ng/mL) [17] | 2.97
KAI3 (IL-2 2.5 ng/mL) [18] | 21.9
KHYG-1 (IL-2 2.5 ng/mL) [19] | 14
NK-92 (IL-2 2.5 ng/mL) [20] | 9.34
NK-YS (IL-2 2.5 ng/mL) [21] | 16.3
NKL (IL-2 2.5 ng/mL) [22] | 9.19
SNK-6 (IL-2 2.5 ng/mL) [23] | 23.8
YT (IL-2 2.5 ng/mL) [24] | 12.5
[15] | 8.27
[25] | 8.37
[26] | 8.97
[27] | 7.63
[28] | 5.7
